{"source": "patent US20250195491A1", "about": "(AEVIS BIO, INC., priority 2022, published 2025)", "key": {"TNF-α, IL-1β, and IL-6": {"test_system": "TNF-α, IL-1β, and IL-6", "test": "Pro-inflammatory cytokine mRNA (RT-PCR) in LPS-stimulated BV-2 cells", "type": "cell-based, mouse", "conditions": "BV-2, 30, 10, or 3.33 μM, LPS 1 μg/mL 6 hours, FIG. 5B", "description": "(§1) BV-2 was plated in a 6-well plate (Corning, MD, USA) at 5×10^5 cells/well, and cultured using a DMEM medium (Corning, MD, USA) containing 10% fetal bovine serum (Corning, MD, USA) and 100 U/mL of penicillin/streptomycin (Corning, MD, USA) at 37° C. in a 5% CO2 incubator for one day for stabilization. […] 1 μg/mL of LPS (Sigma, USA) was added to all experimental groups excluding the non-inflammation-induced group and allowed to react at 37° C. in a 5% CO2 incubator for 6 hours.\nThe drug-treated BV-2 underwent RNA prep according to kit manual using an RNA prep kit (Monarch Total RNA Miniprep kit, NEB, UK), and the concentration was measured using a nanophotometer (NP80, Implen, Germany). According to the concentration of each RNA sample, 1 μg of RNA was added and cDNA was synthesized according to the manual of the cDNA synthesis kit (LunaScript RT SuperMix kit, NEB, UK).\nThe expression level of each cytokine in the synthesized cDNA was analyzed and compared using Real-Time PCR (StepOne™Bioscience, USA) equipment. […] The Cr value for the gene of each sample obtained through real-time PCR was normalized by the value of the internal control gene (GAPDH) of each sample, the expression level was estimated inversely by 2ΔΔCT calculation, and the resulting value of each group was quantified and expressed as a percentage relative to the LPS-only treatment group."}, "BV-2 cells": {"test_system": "BV-2 cells", "test": "Nitrite content in culture medium of LPS-stimulated BV-2 cells (Griess)", "type": "cell-based, mouse", "conditions": "BV-2, 30, 10, or 3.33 μM, LPS 1 μg/mL 24 hours, FIG. 6B", "description": "To further confirm the oxidative stress suppression effect, the content of nitrite released due to an inflammatory response and the expression levels of iNOS, which is an enzyme that produces nitric oxide, and COX-2, which is cyclooxygenase-2, were determined in mouse microglial cells (BV-2, ATCC, Manassas, VA, USA).\nas §1, with “To determine the content of nitrite and the protein expression levels of iNOS and COX-2, BV-2” for “BV-2”, “seeded” for “plated”, “12-well” for “6-well”, “1.5×10^5” for “5×10^5”, “24” for “6”\nThe cell culture solution was collected to measure the content of nitrite, and centrifuged at 3,000 rpm for 5 minutes to obtain a supernatant. The concentration of nitrite in the cell culture was measured using a microplate reader (NEO2MALPHAB Synergy Neo-2, BioTek, CA, US) according to the manual of the Griess Reagent System (#G2930, Promega, WI, USA)."}}, "data": [{"compound": "Nc1cccc2c1C(=S)N(C1CCC(=O)NC1=O)C2=O", "note": "(centres unmarked) [3-MP, 3-thiopomalidomide]", "values": [{"measurement": "pro-inflammatory cytokine inhibition effect (mRNA)", "setting": "TNF-α, IL-1β, and IL-6", "value": "higher pro-inflammatory cytokine inhibition effect than pomalidomide"}, {"measurement": "amount of residual nitrite released by LPS", "setting": "BV-2 cells", "value": "effectively reduced the amount of the residual nitrite released by LPS, compared to pomalidomide"}]}]}
